Measurements reported in patent US9616037B2, “Aryl-phenyl-sulfonamido-cycloalkyl compounds and their use” (PIMCO 2664 Limited, priority 2008, dated 2017).
≈ marks a conversion by molar mass, not a printed value.

Key:
[1] = tested on: J774 macrophages; assay: Alamar Blue macrophage J774 viability assay; format: cell-based; settings: Mus musculus; J774 cells, 72 hours with compound, Alamar Blue readout; read-out: IC50
Description: (§1) Initial screening of candidate compounds was performed using in vitro assays to determine potency, metabolic stability and solubility in biologically relevant fluids. Potency was assessed using a viability assay based on the survival of the J774 macrophage cell line. Macrophages are closely related to osteoclasts and have been used previously as a model system for osteoclast survival (see, e.g., Luckman et al., 1998). Like osteoclasts, J774 macrophages are dependent on continued NFκB activation for survival, thereby providing a valuable screen for compounds with anti-inflammatory activity. Metabolic stability was measured by determining the rate of disappearance of compound in the presence of human liver microsomal preparations, as quantified by LC-MS/MS. Solubility was measured by equilibration of the compound in fasted state simulated intestinal fluid (FaSSIF) and quantified by HPLC.
In vitro potency as anti-inflammatory agents was determined for a number of APSAC compounds by incubation with J774 macrophages and subsequent determination of cell viability.
J774 cells were plated at 10^4 cells per well in 100 μL αMEM (α Modified Eagle Medium) in 96-well plates and grown overnight. The next day, test compounds were added to the cultures, and cultures were continued for another 72 hours. At the end of the culture period, cell survival was determined using an Alamar Blue assay as previously described (see, e.g., Nociari et al., 1998).
Alamar Blue is an oxidation-reduction sensitive indicator. The dye itself is in the oxidised state, which is blue and non-fluorescent. The dye can accept electrons from reducing species, such as NADPH and FADH, to form a reduced dye species, which is red and fluorescent. Thus the transformation from oxidised form to reduced form can be measured by fluorimetric or colourimetric means. For fluorescence measurements, 530-560 nm excitation and 590 nm emission wavelengths are typically used. For colourimetric measurements, absorbance at 570 nm (reduced form) and 600 nm (oxidised form) is typically measured. A simple calculation is performed to determine the relative quantities of the two species.
A high ratio of the reducing species, NADPH and FADH, to the corresponding oxidised species, NADP and FAD, is an indicator that cells are proliferating and viable. A low ratio indicates cells that are quiescent or non-viable.
Briefly, Alamar Blue (Biosource International) was added undiluted to the each well (1:10 v/v, 10 μL). The plate was incubated at 37° C. for 3-4 hours and the fluorescence was measured at 590 nm, with a 25 nm bandwidth. A high reading indicated cells with normal viability, and a low reading indicated cells that have been damaged and are no longer proliferating normally. The controls gave a high fluorescence reading, indicating a high number of live, healthy cells. A potent test compound gave a low fluorescence reading. The average results for each test compound (n=5) were expressed as a percent (%) of the average control value.
Addition of Compounds. All of the compounds studied were made up as 100 mM solutions in DMSO. These stock solutions were then diluted 1000-10000× in culture medium (αMEM). From these 100 μM or 10 μM solutions, convenient quantities (3-33 μL) were added directly to the wells so as to give the desired final compound concentration.

[2] = Thermodynamic aqueous solubility in fasted state simulated intestinal fluid (FaSSIF); format: physicochemical; settings: pH 6.5, thermodynamic from solid, equilibrated at 25° C. for 24 hours, HPLC
Description: as §1, with “Macrophages are closely related to osteoclasts and have been used previously as a model system for osteoclast survival (see, e.g., Luckman et al., 1998).” left out
Thermodynamic aqueous solubility was measured by equilibration of a number of APSAC compounds, in the solid state, with fasted state simulated intestinal fluid (FaSSIF) and quantified by HPLC. Measurement of solubility in FaSSIF provides a valuable model for the prediction of drug dissolution following oral administration.
The pH was adjusted to 6.5 using 1 M NaOH solution.
0.6 mL of a solution containing 100 mg/mL lecithin in methylene chloride was added. The methylene chloride was eliminated under vacuum at about 40° C. The vacuum was drawn for 15 minutes at 250 mbar, followed by 15 minutes at 100 mbar. […] After cooling to room temperature, the solution was then adjusted to 100 mL with blank FaSSIF.
The suspension was equilibrated at 25° C. for 24 hours, and then the pH was measured. The suspension was then filtered through a glass fibre C filter into a 96-well plate. The filtrate was then diluted by a factor of 100. Quantification was made by HPLC with reference to a standard solution of compound at approximately 0.1 mg/mL in DMSO. Different volumes of the standard, diluted and undiluted sample solutions were injected. […] Analysis was performed on an Agilent HP1100 series system equipped with a diode array detector and using ChemStation software vB.02.01-SR1.

[3] = Human liver microsomal stability assay; format: in vitro ADME; settings: pooled human liver microsomes 0.5 mg/mL, 3 μM compound, NADPH, 45 minute incubation; for half-life at 3 µM: both sexes, pH 7.4
Description: as §1, with “Macrophages are closely related to osteoclasts and have been used previously as a model system for osteoclast survival (see, e.g., Luckman et al., 1998).” left out
Metabolic stability of APSAC derivatives was measured by determination of the rate of compound disappearance when incubated in the presence of human liver microsomes. Liver microsomes are prepared from the endoplasmic reticulum of hepatocytes and are the primary source of the most important enzymes (cytochrome P450) involved in drug metabolism. Study of drug stability in the presence of liver microsomes is accepted as a valuable model permitting rapid prediction of in vivo drug stability.
Human liver microsomes were obtained from a commercial source. Test compounds (3 μM) were incubated with pooled liver microsomes (male and female). Samples were incubated for a 45 minute period and removed at 5 time points and test compounds were analysed by LC-MS/MS.
The final incubation volume was 25 μL. A control incubation was included for each compound tested, where 0.1 M phosphate buffer pH 7.4 was added instead of NADPH. The control compounds testosterone and 7-hydroxycoumarin were included in each experiment and all incubations were performed singularly for each compound.
Each compound was incubated for 0, 5, 15, 30, and 45 minutes. The control (minus NADPH) was incubated for 45 minutes only. […] The incubation plates were centrifuged at 2500 rpm for 20 minutes at 4° C. to precipitate the protein.
Following protein precipitation, the sample supernatants were combined in cassettes of up to 4 compounds and analysed using standard LC-MS/MS conditions.
From a plot of the natural logarithm of the peak area ratio (i.e., the ratio of compound peak area:internal standard peak area) against time, the gradient of the line was determined. Subsequently, half-life and intrinsic clearance were calculated using the equations below: Eliminated rate constant (k)=(−gradient). […] Pharmacokinetics Studies

[4] = tested on: caspase 3; assay: Caspase induction study (Nucview488 fluorogenic substrate) in the presence of TNFα; format: cell-based; settings: human monocytes, 10 μM test compound, 10 ng/mL TNFα, Nucview488 stain
Description: The ability to activate caspase 3 was studied using a fluorogenic enzyme substrate assay.
Briefly, human primary monocytes were isolated from whole blood using Ficoll gradients. The resulting cells were plated into microwell plates for 24 hours after which non-adherent cells were removed by washing. Cells were differentiated in the presence of 100 ng/mL MCSF. Cells were pre-treated with 10 μM test compound for 1 hour prior to stimulation with 10 ng/mL TNFα. Caspase 3 activation as an indicator of apoptosis was detected using the Nucview488 stain, which was added one hour prior to visualisation. The Nucview488 stain indicates the activation of caspase 3 (CPP32, apopain, YAMA), a cysteine peptidase which plays a key role in the induction of apoptosis in individual whole mammalian cells. Essentially, Nucview488 consists of a fluorogenic DNA dye and a DEVD substrate moiety specific for caspase 3. In itself, Nucview488 is nonfluorescent. However, upon entering the cell cytoplasm, Nucview488 is cleaved by caspase 3 to form a high-affinity DNA dye. The released DNA dye migrates to the cell nucleus to stain the nucleus bright green. This fluorescent staining produced in response to caspase 3 activity is monitored using fluorescent light microscopy.

| SMILES | IC50 [1] | solubility at 24 h [2] | half-life at 3 µM [3] | caspase 3 activation (fluorescence detected by light microscopy) [4] | T1/2 [3] |
| --- | --- | --- | --- | --- | --- |
| O=S(=O)(N[C@@H]1CCC[C@@H]1CO)c1ccc(-c2ccc(F)cc2F)cc1 (relative stereo) [ABD769, 2′,4′-Difluoro-N-(cis-2-(hydroxymethyl)cyclopentyl)biphenyl-4-sulfonamide] | 4590 nM | 70 µg/mL (≈ 191 µM) | 42 min | – | – |
| O=S(=O)(N[C@H]1CC[C@H](O)CC1)c1ccc(-c2ccc(F)cc2F)cc1 [ABD599, 2′,4′-Difluoro-N-(trans-4-hydroxycyclohexyl)biphenyl-4-sulfonamide] | 70 nM | 30 µg/mL (≈ 81.7 µM) | 287 min | significant activation of caspase 3 | – |
| O=S(=O)(N[C@H]1CC[C@H](O)CC1)c1ccc(-c2ccc(Cl)cc2F)cc1 [ABD655, 4′-Chloro,2′-fluoro-N-(trans-4-hydroxycyclohexyl)biphenyl-4-sulfonamide] | 180 nM | 30 µg/mL (≈ 78.2 µM) | 228 min | – | – |
| O=S(=O)(NC1CCC(CO)CC1)c1ccc(-c2ccc(F)cc2F)cc1 (stereo not drawn) [ABD776, 2′,4′-Difluoro-N-(4-(trans-hydroxymethyl)cyclohexyl)biphenyl-4-sulfonamide] | 800 nM | 82 µg/mL (≈ 215 µM) | 137 min | – | – |
| O=S(=O)(N[C@H]1CC[C@@H](O)CC1)c1ccc(-c2ccc(F)cc2F)cc1 [ABD777, 2′,4′-Difluoro-N-(cis-4-hydroxycyclohexyl)biphenyl-4-sulfonamide] | 1900 nM | 60 µg/mL (≈ 163 µM) | 69 min | – | – |
| O=C1CCC(NS(=O)(=O)c2ccc(-c3ccc(F)cc3F)cc2)CC1 [ABD786, 2′,4′-Difluoro-N-(4-oxocyclohexyl)biphenyl-4-sulfonamide] | 280 nM | 32 µg/mL (≈ 87.6 µM) | 12 min | – | – |
| NC1CCC(NS(=O)(=O)c2ccc(-c3ccc(F)cc3F)cc2)CC1 (stereo not shown) [ABD787] | 3550 nM | 140 µg/mL (≈ 382 µM) | – | – | Stable |
| CC(C)(O)[C@H]1CC[C@H](NS(=O)(=O)c2ccc(-c3ccc(F)cc3F)cc2)CC1 [ABD794, 2′,4′-Difluoro-N-(trans-4-(2-hydroxypropan-2-yl)cyclohexyl)biphenyl-4-sulfonamide] | 2100 nM | 12 µg/mL (≈ 29.3 µM) | – | – | Stable |
| CC(C)(O)[C@H]1CC[C@@H](NS(=O)(=O)c2ccc(-c3ccc(F)cc3F)cc2)CC1 [ABD795, 2′,4′-Difluoro-N-(cis-4-(2-hydroxypropan-2-yl)cyclohexyl)biphenyl-4-sulfonamide] | 2700 nM | 50 µg/mL (≈ 122 µM) | 15 min | – | – |
| CC(C)(O)[C@@H]1CC[C@H](NS(=O)(=O)c2ccc(-c3ccc(F)cc3F)cc2)C1 [ABD796, 2′,4′-Difluoro-N-((1S,3R)-3-(2-hydroxypropan-2-yl)cyclopentyl)biphenyl-4-sulfonamide] | < 300 nM | 200 µg/mL (≈ 506 µM) | 54 min | – | – |
| CN(C)[C@H]1CC[C@@H](NS(=O)(=O)c2ccc(-c3ccc(F)cc3F)cc2)CC1 [ABD798, N-(cis-4-(Dimethylamino)cyclohexyl)-2′,4′-difluorobiphenyl-4-sulfonamide] | 600 nM | 4700 µg/mL (≈ 11900 µM) | – | – | Stable |
| CN(C)[C@H]1CC[C@H](NS(=O)(=O)c2ccc(-c3ccc(F)cc3F)cc2)CC1 [ABD799, N-(trans-4-(Dimethylamino)cyclohexyl)-2′,4′-difluorobiphenyl-4-sulfonamide] | 400 nM | 7200 µg/mL (≈ 18300 µM) | – | – | Stable |
| N[C@H]1CC[C@@H](NS(=O)(=O)c2ccc(-c3ccc(F)cc3F)cc2)CC1 [ABD812, N-(cis-4-Aminocyclohexyl)-2′,4′-difluorobiphenyl-4-sulfonamide] | 7600 nM | 980 µg/mL (≈ 2670 µM) | 585 min | – | – |
| O=S(=O)(N[C@H]1CC[C@H](CO)C1)c1ccc(-c2ccc(F)cc2F)cc1 [ABD813, 2′,4′-Difluoro-N-((1S,3S)-3-(hydroxymethyl)cyclopentyl)biphenyl-4-sulfonamide] | 570 nM | 330 µg/mL (≈ 898 µM) | 45.4 min | – | – |
| CC(C)(O)[C@H]1CC[C@H](NS(=O)(=O)c2ccc(-c3ccc(F)cc3F)cc2)C1 [ABD815, 2′,4′-Difluoro-N-((1S,3S)-3-(2-hydroxypropan-2yl)cyclopentyl) biphenyl-4-sulfonamide] | < 300 nM | 250 µg/mL (≈ 632 µM) | 13.2 min | – | – |
